Laboratory results from PubChem BioAssay AID248 (DTP/NCI, 2004).
“And” between values parts separate entries of the source, which are not always exact repeats. Identical values can stand only once. Toxic doses and inconclusive results are not listed. No stated cut-off is given here; in the data, active means T/C of 150% or more; inactive means T/C below 125%.

Tested on: L1210 leukemia ip in BDF1 mice, survival T/C
Assay: NCI In Vivo Anticancer Drug Screen. Data for tumor model L1210 Leukemia (intraperitoneal) in B6D2F1 (BDF1) mice
Conditions: endpoint: mean survival time, higher = longer survival
Outline: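 In this screen, tumor-bearing mice given compound are compared to those given vehicle, and their survival values are reported as a treated-to-control quotient.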

[1] = dose: 100.0 mg/kg/injection, schedule: Q01DX009 (ip), vehicle: saline
[2] = dose: 100.0 mg/kg/injection, schedule: Q04DX002 (ip), vehicle: Klucel (hydroxypropylcellulose) (HPC)
[3] = dose: 200.0 mg/kg/injection, schedule: Q01DX009 (ip), vehicle: saline
[4] = dose: 200.0 mg/kg/injection, schedule: Q04DX002 (ip), vehicle: Klucel (hydroxypropylcellulose) (HPC)
[5] = dose: 400.0 mg/kg/injection, schedule: Q04DX002 (ip), vehicle: Klucel (hydroxypropylcellulose) (HPC)
[6] = dose: 100.0 mg/kg/injection, schedule: Q01DX009 (ip), vehicle: saline with Tween-80
[7] = dose: 200.0 mg/kg/injection, schedule: Q01DX009 (ip), vehicle: saline with Tween-80
[8] = dose: 100.0 mg/kg/injection, schedule: Q01DX001 (ip), vehicle: carboxymethylcellulose (CMC)
[9] = dose: 50.0 mg/kg/injection, schedule: Q01DX009 (ip), vehicle: saline
[10] = dose: 100.0 mg/kg/injection, schedule: Q04DX003 (ip), vehicle: saline with Tween-80
[11] = dose: 200.0 mg/kg/injection, schedule: Q04DX003 (ip), vehicle: saline with Tween-80
[12] = dose: 100.0 mg/kg/injection, schedule: Q04DX003 (ip), vehicle: Klucel (hydroxypropylcellulose) (HPC)
[13] = dose: 200.0 mg/kg/injection, schedule: Q04DX003 (ip), vehicle: Klucel (hydroxypropylcellulose) (HPC)
[14] = dose: 100.0 mg/kg/injection, schedule: Q01DX009 (ip), vehicle: Klucel (hydroxypropylcellulose) (HPC)
[15] = dose: 200.0 mg/kg/injection, schedule: Q01DX009 (ip), vehicle: Klucel (hydroxypropylcellulose) (HPC)
[16] = dose: 12.5 mg/kg/injection, schedule: Q01DX009 (ip), vehicle: saline
[17] = dose: 25.0 mg/kg/injection, schedule: Q01DX009 (ip), vehicle: saline
[18] = dose: 400.0 mg/kg/injection, schedule: Q04DX003 (ip), vehicle: saline with Tween-80

Measured: T/C

CCOC(=O)Cn1c(C)cnc1C
inactive: dose: 100.0 mg/kg/injection, schedule: Q01DX001 (ip), vehicle: saline 112 % of control | [1] 96 % of control and 108 % of control | [2] 107 % of control | dose: 100.0 mg/kg/injection, schedule: Q04DX002 (ip), vehicle: saline 98 % of control | dose: 100.0 mg/kg/injection, schedule: Q04DX003 (ip), vehicle: saline 101 % of control | dose: 200.0 mg/kg/injection, schedule: Q01DX001 (ip), vehicle: saline 104 % of control | [3] 101 % of control and 91 % of control | [4] 100 % of control | dose: 200.0 mg/kg/injection, schedule: Q04DX002 (ip), vehicle: saline 113 % of control | dose: 200.0 mg/kg/injection, schedule: Q04DX003 (ip), vehicle: saline 99 % of control | dose: 400.0 mg/kg/injection, schedule: Q01DX001 (ip), vehicle: saline 98 % of control | dose: 400.0 mg/kg/injection, schedule: Q01DX009 (ip), vehicle: saline 96 % of control and 103 % of control | [5] 111 % of control | dose: 400.0 mg/kg/injection, schedule: Q04DX002 (ip), vehicle: saline 98 % of control | dose: 400.0 mg/kg/injection, schedule: Q04DX003 (ip), vehicle: saline 99 % of control

CC(=O)Nc1ccc(OC(=O)Nc2ccc(Cl)cc2C(F)(F)F)cc1
inactive: dose: 50.0 mg/kg/injection, schedule: Q01DX009 (ip), vehicle: saline with Tween-80 93 % of control | [6] 100 % of control | [7] 104 % of control

O=C1c2ccccc2C(=O)C1(c1ccccc1)c1ccccc1
inactive: [8] 103 % of control | dose: 200.0 mg/kg/injection, schedule: Q01DX001 (ip), vehicle: carboxymethylcellulose (CMC) 97 % of control | dose: 400.0 mg/kg/injection, schedule: Q01DX001 (ip), vehicle: carboxymethylcellulose (CMC) 92 % of control

CCCCC[C@H](O)/C=C/[C@H]1[C@H](O)CC(=O)[C@@H]1C/C=C\CCCC(=O)O
inactive: dose: 0.37 mg/kg/injection, schedule: Q04DX002 (ip), vehicle: Klucel (hydroxypropylcellulose) (HPC) 100 % of control | dose: 0.75 mg/kg/injection, schedule: Q04DX002 (ip), vehicle: Klucel (hydroxypropylcellulose) (HPC) 103 % of control | dose: 1.5 mg/kg/injection, schedule: Q04DX002 (ip), vehicle: Klucel (hydroxypropylcellulose) (HPC) 111 % of control | dose: 3.0 mg/kg/injection, schedule: Q04DX002 (ip), vehicle: Klucel (hydroxypropylcellulose) (HPC) 118 % of control | dose: 6.0 mg/kg/injection, schedule: Q04DX002 (ip), vehicle: Klucel (hydroxypropylcellulose) (HPC) 96 % of control | dose: 12.0 mg/kg/injection, schedule: Q04DX002 (ip), vehicle: Klucel (hydroxypropylcellulose) (HPC) 96 % of control | dose: 24.0 mg/kg/injection, schedule: Q04DX002 (ip), vehicle: Klucel (hydroxypropylcellulose) (HPC) 100 % of control | dose: 25.0 mg/kg/injection, schedule: Q04DX002 (ip), vehicle: saline with Tween-80 98 % of control | dose: 50.0 mg/kg/injection, schedule: Q04DX002 (ip), vehicle: saline with Tween-80 98 % of control | dose: 100.0 mg/kg/injection, schedule: Q04DX002 (ip), vehicle: saline with Tween-80 105 % of control | dose: 200.0 mg/kg/injection, schedule: Q04DX002 (ip), vehicle: saline with Tween-80 102 % of control | dose: 400.0 mg/kg/injection, schedule: Q04DX002 (ip), vehicle: saline with Tween-80 98 % of control

CN(N=O)C(=O)Nc1ccccc1
inactive: dose: 6.25 mg/kg/injection, schedule: Q01DX Z (ip), vehicle: carboxymethylcellulose (CMC) 104 % of control | dose: 12.5 mg/kg/injection, schedule: Q01DX Z (ip), vehicle: carboxymethylcellulose (CMC) 112 % of control | dose: 25.0 mg/kg/injection, schedule: Q01DX Z (ip), vehicle: carboxymethylcellulose (CMC) 112 % of control | dose: 50.0 mg/kg/injection, schedule: Q01DX Z (ip), vehicle: carboxymethylcellulose (CMC) 122 % of control | dose: 100.0 mg/kg/injection, schedule: Q01DX Z (ip), vehicle: carboxymethylcellulose (CMC) 91 % of control | dose: 150.0 mg/kg/injection, schedule: Q01DX001 (ip), vehicle: carboxymethylcellulose (CMC) 112 % of control | dose: 600.0 mg/kg/injection, schedule: Q01DX001 (ip), vehicle: carboxymethylcellulose (CMC) 117 % of control

OCC1OC(n2cc(Cl)c3cncnc32)C(O)C1O (stereo not given)
inactive: dose: 50.0 mg/kg/injection, schedule: Q01DX005 (ip), vehicle: saline 101 % of control

NCc1cc([N+](=O)[O-])ccc1Cl
inactive: [9] 101 % of control | [1] 95 % of control | [10] 92 % of control | [3] 97 % of control | [11] 103 % of control

CC(S)CN1CC1 (stereo not given)
inactive: [12] 107 % of control | [13] 105 % of control

BrC1C2CC3C(C2)C13 (stereo not given)
inactive: [14] 104 % of control | [12] 100 % of control | [15] 95 % of control | [13] 95 % of control | dose: 400.0 mg/kg/injection, schedule: Q01DX009 (ip), vehicle: Klucel (hydroxypropylcellulose) (HPC) 98 % of control | dose: 400.0 mg/kg/injection, schedule: Q04DX003 (ip), vehicle: Klucel (hydroxypropylcellulose) (HPC) 93 % of control

O=C(O)c1cccc(Br)c1
inactive: [2] 102 % of control | [4] 98 % of control | [5] 102 % of control

CC(c1c[nH]c2ccccc12)N1CCCCC1 (stereo not given)
inactive: [16] 115 % of control | [17] 107 % of control | dose: 25.0 mg/kg/injection, schedule: Q04DX003 (ip), vehicle: acetone 103 % of control | [9] 109 % of control | dose: 50.0 mg/kg/injection, schedule: Q04DX003 (ip), vehicle: acetone 95 % of control | [8] 96 % of control

CC(=O)Oc1ccc(C2CC(=O)OC2=O)cc1 (stereo not given)
inactive: [6] 105 % of control | [10] 92 % of control | [7] 97 % of control | [11] 91 % of control | dose: 400.0 mg/kg/injection, schedule: Q01DX009 (ip), vehicle: saline with Tween-80 87 % of control | [18] 92 % of control

CSc1ccc(NCN2C(=O)c3ccccc3C2=O)cc1
inactive: [14] 102 % of control | [15] 100 % of control

Cc1ncc(CO)c(/C=N/OCc2nnc(Nc3ccccc3)s2)c1O
inactive: [10] 92 % of control | [11] 101 % of control | [18] 106 % of control

Cc1ccc(NC(=O)OCCN(C)C)cc1NC(=O)OCCN(C)C
inactive: [16] 98 % of control and 97 % of control | [17] 98 % of control | [9] 101 % of control and 92 % of control | [1] 102 % of control

CCC(=O)C1(c2cccc(O)c2)CCN(C)CC1
inactive: dose: 75.0 mg/kg/injection, schedule: Q01DX001 (ip), vehicle: saline 94 % of control | dose: 150.0 mg/kg/injection, schedule: Q01DX001 (ip), vehicle: saline 97 % of control
